# Source: patent US20240150377A1, “MODULATORS OF CYSTIC FIBROSIS TRANSMEMBRANE CONDUCTANCE REGULATOR” (VERTEX PHARMACEUTICALS INCORPORATED, priority 2020, published 2024)
# pEC50: −log10 of the molar value. Like-named read-outs stand apart in the source and are kept apart here.
# Experiments:
# [1] = amide bond, 13-membered ring
# CFTR = biological target: T1, CFTR (Homo sapiens, UniProt P13569, DEL508-508); experiment: HBE assay: Ussing chamber assay of CFTR-mediated short-circuit currents; format: cell-based; settings: for pEC50: read-out: HBE EC50
# T1 construct: endogenous in cells; host or cells: primary human bronchial epithelial cells from CF subjects (F508del/MF-HBE), differentiated at air-liquid interface
# T1 sequence (P13569 with tags, fused parts or gaps DEL508-508): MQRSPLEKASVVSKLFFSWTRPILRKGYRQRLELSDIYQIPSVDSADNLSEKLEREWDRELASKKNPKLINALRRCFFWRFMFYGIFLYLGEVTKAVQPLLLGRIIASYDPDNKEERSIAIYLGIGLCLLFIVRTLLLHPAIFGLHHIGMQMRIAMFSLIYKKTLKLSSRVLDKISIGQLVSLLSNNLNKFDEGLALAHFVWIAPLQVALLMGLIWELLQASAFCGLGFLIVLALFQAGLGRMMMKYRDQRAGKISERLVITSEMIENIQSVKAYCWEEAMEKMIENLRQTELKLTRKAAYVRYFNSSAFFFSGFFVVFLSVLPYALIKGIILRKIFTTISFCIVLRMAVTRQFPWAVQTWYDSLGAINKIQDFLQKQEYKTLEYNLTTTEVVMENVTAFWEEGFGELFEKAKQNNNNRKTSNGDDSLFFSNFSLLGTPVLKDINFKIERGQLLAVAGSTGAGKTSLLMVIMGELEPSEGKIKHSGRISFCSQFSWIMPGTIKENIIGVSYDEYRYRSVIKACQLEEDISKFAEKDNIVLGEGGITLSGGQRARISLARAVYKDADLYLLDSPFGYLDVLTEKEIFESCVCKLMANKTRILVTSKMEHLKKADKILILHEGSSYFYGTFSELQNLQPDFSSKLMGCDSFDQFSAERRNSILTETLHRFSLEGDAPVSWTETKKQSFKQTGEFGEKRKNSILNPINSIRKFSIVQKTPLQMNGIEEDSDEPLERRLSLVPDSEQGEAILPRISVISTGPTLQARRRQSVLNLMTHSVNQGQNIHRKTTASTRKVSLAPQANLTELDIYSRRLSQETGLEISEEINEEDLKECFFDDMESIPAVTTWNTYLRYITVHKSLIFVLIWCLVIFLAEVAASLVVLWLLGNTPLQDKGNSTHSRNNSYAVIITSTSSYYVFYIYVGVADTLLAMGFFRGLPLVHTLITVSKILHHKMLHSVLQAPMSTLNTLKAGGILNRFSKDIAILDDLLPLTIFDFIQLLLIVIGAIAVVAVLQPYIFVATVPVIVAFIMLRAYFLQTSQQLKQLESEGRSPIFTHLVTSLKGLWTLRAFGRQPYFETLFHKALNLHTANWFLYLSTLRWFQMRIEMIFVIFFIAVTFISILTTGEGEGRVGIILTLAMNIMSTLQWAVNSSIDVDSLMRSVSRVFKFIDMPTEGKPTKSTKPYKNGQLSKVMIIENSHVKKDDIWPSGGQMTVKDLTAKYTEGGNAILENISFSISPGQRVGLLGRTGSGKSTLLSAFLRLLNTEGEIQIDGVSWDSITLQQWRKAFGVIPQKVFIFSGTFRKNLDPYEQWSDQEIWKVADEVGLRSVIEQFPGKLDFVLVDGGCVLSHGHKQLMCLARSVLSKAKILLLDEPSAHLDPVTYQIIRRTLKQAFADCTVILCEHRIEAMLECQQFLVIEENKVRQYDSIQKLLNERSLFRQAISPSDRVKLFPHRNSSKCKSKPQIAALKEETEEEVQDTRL
# Outline: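 CFTR-mediated Isc (μA/cm²) equals the peak response to apical 20 μM forskolin minus the residual after a 20 μM each BPO/GlyH-101/CFTR inhibitor 172 cocktail, recorded in Ussing chambers at Vhold 0 mV, 37 °C, pH 7.4, with 30 μM apical amiloride. Cells were F508del/MF HBE cultures preincubated 18-24 h with corrector (concentration range or 10 μM) plus 1 μM ivacaftor in 20% human serum.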
# [2] = Table 11, read-out: HBE Max Activity (%)
# [3] = Table 10, read-out: HBE Max activity (%)
SMILES,pEC50 (CFTR; Table 11),Emax (CFTR; [2]),pEC50 (CFTR; Table 10),Emax (CFTR; [3]),other results
"Cc1cc(C)nc(CN2C(=O)c3cccc(c3)S(=O)(=O)Nc3nc(cc(-c4c(C)cccc4C)n3)OC[C@H]2CC(C)(C)C)c1 [Compound 55, (11R)-6-(2,6-Dimethylphenyl)-11-(2,2-dimethylpropyl)-12-[(4,6-dimethylpyridin-2-yl)methyl]-9-oxa-2λ^6-thia-3,5,12,19-tetraazatricyclo[12.3.1.14,8]nonadeca-1(18),4,6,8(19),14,16-hexaene-2,2,13-trione]",> 6.00,> 60%,–,–,"ring closure, yield after HPLC ([1]; from 3-[[4-(2,6-dimethylphenyl)-6-[(2R)-2-[(4,6-dimethyl-2-pyridyl)methylamino]-4,4-dimethyl-pentoxy]pyrimidin-2-yl]sulfamoyl]benzoic acid (Dihydrochloride salt), CDMT/NMM, DMF, 42.2 mM, 25.0 °C): 44%"
"Cc1cccc(C(C)C)c1-c1cc2nc(n1)NS(=O)(=O)c1cccc(c1)C(=O)N(Cc1ncc(N3CCOCC3)cn1)[C@H](CC(C)(C)C)CO2 [Compound 6, (11R)-11-(2,2-Dimethylpropyl)-6-[2-methyl-6-(propan-2-yl)phenyl]-12-{[5-(morpholin-4-yl)pyrimidin-2-yl]methyl}-9-oxa-2λ^6-thia-3,5,12,19-tetraazatricyclo[12.3.1.14,8]nonadeca-1(17),4(19),5,7,14(18),15-hexaene-2,2,13-trione]",> 6.00,> 60%,–,–,"ring closure, yield after HPLC ([1]; from Cc1cccc(C(C)C)c1-c1cc(OC[C@@H](CC(C)(C)C)NCc2ncc(N3CCOCC3)cn2)nc(NS(=O)(=O)c2cccc(C(=O)O)c2)n1, CDMT/NMM, DMF, 54.0 mM, 25.0 °C, 60.0 h, 2 steps): 21%"
"Cc1cccc(C)c1-c1cc2nc(n1)NS(=O)(=O)c1cccc(c1)C(=O)N(Cc1ccc3ccccc3n1)[C@H](CC(C)(C)C)CO2 [Compound 58, (11R)-6-(2,6-Dimethylphenyl)-11-(2,2-dimethylpropyl)-2,2-dioxo-12-(2-quinolylmethyl)-9-oxa-2λ^6-thia-3,5,12,19-tetrazatricyclo[12.3.1.14,8]nonadeca-1(18),4(19),5,7,14,16-hexaen-13-one]",–,–,> 6.00,> 60%,"ring closure, yield after HPLC ([1]; from 3-[[4-(2,6-dimethylphenyl)-6-[(2R)-4,4-dimethyl-2-(2-quinolylmethylamino)pentoxy]pyrimidin-2-yl]sulfamoyl]benzoic acid (Dihydrochloride salt), HATU/DIEA, DMF, 27.5 mM, 25.0 °C): 73%"
"Cc1cccc(C)c1-c1cc2nc(n1)NS(=O)(=O)c1cccc(c1)C(=O)N(Cc1cccn(C)c1=O)[C@H](CC(C)(C)C)CO2 [Compound 59, (11R)-6-(2,6-Dimethylphenyl)-11-(2,2-dimethylpropyl)-12-[(1-methyl-2-oxo-3-pyridyl)methyl]-2,2-dioxo-9-oxa-2λ^6-thia-3,5,12,19-tetrazatricyclo[12.3.1.14,8]nonadeca-1(18),4(19),5,7,14,16-hexaen-13-one]",> 6.00,> 60%,–,–,"ring closure, yield after HPLC ([1]; from Cc1cccc(C)c1-c1cc(OC[C@@H](CC(C)(C)C)NCc2cccn(C)c2=O)nc(NS(=O)(=O)c2cccc(C(=O)O)c2)n1, HATU/DIEA, DMF, 28.1 mM, 25.0 °C, 2.0 h): 54%"
"Cc1cccc(C)c1-c1cc2nc(n1)NS(=O)(=O)c1cccc(c1)C(=O)N(Cc1ccc(OC3CCCC3)cn1)[C@H](CC(C)(C)C)CO2 [Compound 49, (11R)-12-[[5-(Cyclopentoxy)-2-pyridyl]methyl]-6-(2,6-dimethylphenyl)-11-(2,2-dimethylpropyl)-2,2-dioxo-9-oxa-2λ^6-thia-3,5,12,19-tetrazatricyclo[12.3.1.14,8]nonadeca-1(18),4(19),5,7,14,16-hexaen-13-one]",–,–,5.52 to 6.00,> 60%,"ring closure, yield after HPLC ([1]; from 3-[[4-[(2R)-2-[[5-(cyclopentoxy)-2-pyridyl]methylamino]-4,4-dimethyl-pentoxy]-6-(2,6-dimethylphenyl)pyrimidin-2-yl]sulfamoyl]benzoic acid (Dihydrochloride salt), HATU/DIEA, DMF, 28.0 mM, 25.0 °C): 49%"
"Cc1cccc(OCc2ccccc2)c1-c1cc2nc(n1)NS(=O)(=O)c1cccc(c1)C(=O)N(Cc1ccc(N3CCOCC3)cn1)[C@H](CC(C)(C)C)CO2 [Compound 7, (11R)-6-(2-Benzyloxy-6-methyl-phenyl)-11-(2,2-dimethylpropyl)-12-[(5-morpholino-2-pyridyl)methyl]-2,2-dioxo-9-oxa-2λ^6-thia-3,5,12,19-tetrazatricyclo[12.3.1.14,8]nonadeca-1(18),4(19),5,7,14,16-hexaen-13-one]",> 6.00,> 60%,–,–,"ring closure, yield after HPLC ([1]; from Cc1cccc(OCc2ccccc2)c1-c1cc(OC[C@@H](CC(C)(C)C)NCc2ccc(N3CCOCC3)cn2)nc(NS(=O)(=O)c2cccc(C(=O)O)c2)n1, HATU/TBTU/DMTMM/DIEA, DCM, 3.76 mM, 25.0 °C, 1.0 h): 22%; activation at 10 µM (CFTR; Table 11, at 10 μM, read-out: HBE Activity at 10 μM (%)): > 60%"
"Cc1cc(N2CCOCC2)cnc1CN1C(=O)c2cccc(c2)S(=O)(=O)Nc2nc(cc(-c3c(C)cccc3C)n2)OC[C@H]1CC(C)(C)C [Compound 57, (11R)-6-(2,6-Dimethylphenyl)-11-(2,2-dimethylpropyl)-12-[(3-methyl-5-morpholino-2-pyridyl)methyl]-2,2-dioxo-9-oxa-2λ^6-thia-3,5,12,19-tetrazatricyclo[12.3.1.14,8]nonadeca-1(18),4(19),5,7,14,16-hexaen-13-one]",–,–,> 6.00,> 60%,"ring closure, yield after HPLC ([1]; from Cc1cc(N2CCOCC2)cnc1CN[C@@H](COc1cc(-c2c(C)cccc2C)nc(NS(=O)(=O)c2cccc(C(=O)O)c2)n1)CC(C)(C)C, CDMT/NMM, DMF, 25.0 °C, 3.5 h, 2 steps): 19%"

# Further lines, with some results ahead:
pEC50 (CFTR; Table 11),Emax (CFTR; [2]),pEC50 (CFTR; Table 10),Emax (CFTR; [3]),SMILES,other results
–,–,> 6.00,> 60%,"Cc1cccc(C)c1-c1cc2nc(n1)NS(=O)(=O)c1cccc(c1)C(=O)N(Cc1ncc(N(C)CC(C)(C)C)cn1)[C@H](CC(C)(C)C)CO2 [Compound 115, (11R)-6-(2,6-Dimethylphenyl)-11-(2,2-dimethylpropyl)-12-[[5-[2,2-dimethylpropyl(methyl)amino]pyrimidin-2-yl]methyl]-2,2-dioxo-9-oxa-2λ^6-thia-3,5,12,19-tetrazatricyclo[12.3.1.14,8]nonadeca-1(18),4(19),5,7,14,16-hexaen-13-one]","ring closure, yield after HPLC ([1]; from 3-[[4-(2,6-dimethylphenyl)-6-[(2R)-2-[[5-[2,2-dimethylpropyl(methyl)amino]pyrimidin-2-yl]methylamino]-4,4-dimethyl-pentoxy]pyrimidin-2-yl]sulfamoyl]benzoic acid (Dihydrochloride salt), HATU/DIEA, DMF, 19.3 mM, 25.0 °C): 50%"
> 6.00,> 60%,–,–,"Cc1cccc(C)c1-c1cc2nc(n1)NS(=O)(=O)c1cccc(c1)C(=O)N(Cc1ncc(OC(C)C)cn1)[C@H](CC(C)(C)C)CO2 [Compound 118, (11R)-6-(2,6-Dimethylphenyl)-11-(2,2-dimethylpropyl)-12-{[5-(propan-2-yloxy)pyrimidin-2-yl]methyl}-9-oxa-2λ^6-thia-3,5,12,19-tetraazatricyclo[12.3.1.14,8]nonadeca-1(17),4,6,8(19),14(18),15-hexaene-2,2,13-trione]","ring closure, yield after HPLC ([1]; from Cc1cccc(C)c1-c1cc(OC[C@@H](CC(C)(C)C)NCc2ncc(OC(C)C)cn2)nc(NS(=O)(=O)c2cccc(C(=O)O)c2)n1, CDMT/NMM, DMF, 14.3 mM, 13.25 h): 59%"
5.52 to 6.00,> 60%,–,–,"Cc1cccc(C)c1-c1cc2nc(n1)NS(=O)(=O)c1cccc(c1)C(=O)N(Cc1ncc(N3CCC(C)(C)C3)cn1)[C@H](CC(C)(C)C)CO2 [Compound 119, (11R)-6-(2,6-Dimethylphenyl)-11-(2,2-dimethylpropyl)-12-[[5-(3,3-dimethylpyrrolidin-1-yl)pyrimidin-2-yl]methyl]-2,2-dioxo-9-oxa-2λ^6-thia-3,5,12,19-tetrazatricyclo[12.3.1.14,8]nonadeca-1(18),4(19),5,7,14,16-hexaen-13-one]","ring closure, yield after HPLC ([1]; from 3-[[4-(2,6-dimethylphenyl)-6-[(2R)-2-[[5-(3,3-dimethylpyrrolidin-1-yl)pyrimidin-2-yl]methylamino]-4,4-dimethyl-pentoxy]pyrimidin-2-yl]sulfamoyl]benzoic acid (Dihydrochloride salt), CDMT/NMM, DMF, 29.4 mM): 47%"
–,–,> 6.00,> 60%,"Cc1cccc(C)c1-c1cc2nc(n1)NS(=O)(=O)c1cccc(c1)C(=O)N(Cc1cc(C(C)(C)C)[nH]n1)[C@H](CC(C)(C)C)CO2 [Compound 134, (11R)-12-[(5-tert-Butyl-1H-pyrazol-3-yl)methyl]-6-(2,6-dimethylphenyl)-11-(2,2-dimethylpropyl)-2,2-dioxo-9-oxa-2λ^6-thia-3,5,12,19-tetrazatricyclo[12.3.1.14,8]nonadeca-1(18),4(19),5,7,14,16-hexaen-13-one]","ring closure, yield after HPLC ([1]; from Cc1cccc(C)c1-c1cc(OC[C@@H](CC(C)(C)C)NCc2cc(C(C)(C)C)[nH]n2)nc(NS(=O)(=O)c2cccc(C(=O)O)c2)n1, CDMT/NMM, DMF, 3.0 h, 2 steps): 20%"
> 6.00,> 60%,–,–,"Cc1cccc(C)c1-c1cc2nc(n1)NS(=O)(=O)c1cccc(c1)C(=O)N(C[C@@H]1CN(C(=O)OC(C)(C)C)CCO1)[C@H](CC(C)(C)C)CO2 [Compound 141, tert-Butyl (2R)-2-[[(11R)-6-(2,6-dimethylphenyl)-11-(2,2-dimethylpropyl)-2,2,13-trioxo-9-oxa-2λ^6-thia-3,5,12,19-tetrazatricyclo[12.3.1.14,8]nonadeca-1(18),4(19),5,7,14,16-hexaen-12-yl]methyl]morpholine-4-carboxylate]","ring closure, yield after HPLC ([1]; from Cc1cccc(C)c1-c1cc(OC[C@@H](CC(C)(C)C)NC[C@@H]2CN(C(=O)OC(C)(C)C)CCO2)nc(NS(=O)(=O)c2cccc(C(=O)O)c2)n1, CDMT/NMM, DMF, 26.4 mM): 69%"
